Data as given in paper PMC7796460, “Relation of Metal-Binding Property and Selective Toxicity of 8-Hydroxyquinoline Derived Mannich Bases Targeting Multidrug Resistant Cancer Cells” (Cancers, 2021).
Read-outs that look alike come from different tables or passages of the source.

Legend:
[1] = tested on: KB-3-1 cells; assay: MTT viability assay, KB-3-1; format: cell-based; settings: Homo sapiens, KB 3-1, 72 h, MTT 72 h
Text: (§1) MDCK II canine kidney cells, A431 epidermoid carcinoma cells, the human uterine sarcoma cell lines MES-SA and the doxorubicin selected MES-SA-Dx5 were obtained from ATCC (MDCK II: No. CRL-2936™, A431: No. CRL-1555™, MES-SA: No. CRL-1976™, MES-SA/Dx5: No. CRL-1977™). ABCB1 was expressed in A431 and MES-SA cells using lentiviral transduction. The human cervix carcinoma cell line KB-3-1 and the vinblastine selected KB-v1were kind gifts from Dr. Michael M. Gottesman, National Institutes of Health. The phenotype of the resistant cells was verified using cytotoxicity assays. MDCK-B1 and MDCK-MM were established by the Sleeping Beauty transposon-based gene delivery system. OVCAR-8 and NCI-ADRres cells (obtained from the Division of Cancer Treatment and Diagnosis (DCTD) Tumor Repository (National Cancer Institute, Frederick, MD, USA)) were cultivated in RPMI-1640 (Sigma Aldrich, Budapest, Hungary), and other cell lines were cultivated in Dulbecco’s Modified Eagle Medium (DMEM, Sigma Aldrich, Budapest, Hungary), supplemented with 10% fetal bovine serum, 5 mM glutamine, and 50 unit/mL penicillin and streptomycin (Life Technologies, Carlsbad, CA, USA). All cell lines were cultivated at 37 °C, 5% CO2.
(§2) MTT viability assays were performed as described earlier with minor modifications. Briefly, cells were seeded into 96-well tissue culture plates (Sarstedt, Newton, NC, USA/Orange, Braine-l’Alleud, Belgium) at a density of 5000 cells/well and allowed to attach overnight. Test compounds were added to achieve the required final concentration in a final volume of 100 µL per well. After an incubation period of 72 h, the supernatant was removed and fresh medium containing the MTT reagent (0.083 mg/mL) was added. Incubation with MTT at 37 °C was terminated after 1 h by removing the supernatant and lysing the cells with 100 µL DMSO per well. Viability of the cells was measured spectrophotometrically based on the absorbance values at 540 nm using either a Perkin Elmer Victor X3 or an EnSpire microplate reader. Data were background corrected by subtraction of the signal obtained from unstained cell lysates and normalized to untreated cells. Curves were fitted by Prism software (GraphPad Software Inc., San Diego, CA, USA) using the sigmoidal dose-response model (comparing variable and fixed slopes). […] Significance was calculated using unpaired t-tests; results are given as *: p ≤ 0.05, **: p ≤ 0.01, ***: p ≤ 0.001, ****: p ≤ 0.0001.

[2] = tested on: MES-SA cells; assay: MTT viability assay, MES-SA; format: cell-based, human; settings: for IC50: Homo sapiens, MES-SA
Text: as §1, §2

[3] = tested on: A431-B1 cells; assay: MTT viability assay, A431-B1; format: cell-based; settings: for IC50: 72 h, MTT 72 h
Text: as §1, §2

[4] = tested on: MDCK-MM cells; assay: MTT viability assay, MDCK-MM (non-functional Pgp); format: cell-based, canine; settings: for IC50: Canis lupus familiaris, 72 h, MTT 72 h; for SR MDCK-MM: IC50 MDCK vs. MDCK-MM
Text: as §1, §2

[5] = tested on: MES-SA/B1 cells; assay: MTT viability assay, MES-SA/B1; format: cell-based, human; settings: for IC50: Homo sapiens, MES-SA, 72 h, MTT 72 h
Text: as §1, §2

[6] = tested on: MES-SA/Dx5 cells; assay: MTT viability assay, MES-SA/Dx5; format: cell-based, human
Text: as §1, §2

[7] = tested on: NCI-ADRres cells; assay: MTT viability assay, NCI-ADRres; format: cell-based; settings: for IC50: Homo sapiens, NCI/ADR-RES, 72 h, MTT 72 h; for SR NCI-ADRres: IC50 OVCAR-8 vs. NCI-ADRres
Text: as §1, §2

[8] = tested on: MDCK-B1 cells; assay: MTT viability assay, MDCK-B1 (wild-type Pgp); format: cell-based, canine; settings: for IC50: Canis lupus familiaris, 72 h, MTT 72 h
Text: as §1, §2

[9] = tested on: MES-SA cells; assay: ROS determination with DCFDA, MES-SA; format: cell-based, human; settings: 2 h
Protocol: Measurements were performed as described earlier. Briefly, cells were harvested, washed with PBS, and incubated with 10 µM DCFDA in a water bath shaker at 37 °C for 30 min in a density of 3 × 10^6 cells/mL. After washing with PBS, cells were seeded to 96-well plates in PBS in a density of 2 × 10^4 cells/well. Following the measurement of the basal fluorescence, test compounds were added in different concentrations and the fluorescence of the samples was followed at time intervals of 10 min. DCFDA solution in buffer was used as a cell free control to test for interaction of the test compounds with DCFDA. Data were analyzed as fold change of fluorescence compared to basal levels and untreated cells. Significance was calculated using unpaired t-tests; results are given as *: p ≤ 0.05, **: p ≤ 0.01, ***: p ≤ 0.001, ****: p ≤ 0.0001.
Table S3: Characterization of intracellular ROS production with the DCFDA assay for P -gp negative MES-SA and P-gp positive MES-SA/Dx5 cells. Fold changes in fluorescence are shown after a 2 h with the investigated 8 -hydroxyquinoline ligands. Data S-refer to Figure 7 and allow […]
concentration range from 6.25µ M to 50µ M. Fold change of fluorescence obtained in the presence of 5 mM NAC is given in brackets.

[10] = tested on: MDCK cells; assay: MTT viability assay, MDCK; format: cell-based, canine; settings: Canis lupus familiaris, 72 h, MTT 72 h
Text: as §1, §2

[11] = tested on: OVCAR-8 cells; assay: MTT viability assay, OVCAR-8; format: cell-based; settings: Homo sapiens, OVCAR-8, 72 h, MTT 72 h
Text: as §1, §2

[12] = presence of 1 µM Tariquidar (values in brackets)
[13] = presence of 1 µM Tariquidar (brackets)

Question: `Oc1c(CN2CCOCC2)ccc2cccnc12` [Compound Q-2, 7-(morpho-lino-methyl)quinolin-8-ol] was tested. Which IC50 ([1]; absence of Tariquidar) did it give?
Answer: Its IC50 is 9.55 ± 2.55 µM.

Question: What about the IC50 [1, 12] of the same compound?
Answer: The IC50 was 11.7 µM.

Question: And the IC50 ([2]; MTT 72 h, absence of Tariquidar, read-out: IC50 MES-SA)?
Answer: The IC50 was 6.97 ± 1.75 µM.

Question: And the IC50 ([2]; Table 2, value outside brackets, read-out: MES-SA (toxicity, Table 2))?
Answer: The IC50 was 6.97 ± 1.75 µM.

Question: What about the “Effect of co-administration of CuCl2 on toxicity” value ([2]; parental MES-SA, increasing concentrations of CuCl2, MTT 72 h (Figure 2I-L)) of the same compound?
Answer: The value was “increased the toxicity”.

Question: And the IC50 ([3]; absence of Tariquidar)?
Answer: The IC50 was 4.05 ± 1.86 µM.

Question: What about the IC50 [3, 12] of the same compound?
Answer: The IC50 was 7.64 µM.

Question: And the “SR A431-B1” value ([3]; IC50 A431 vs. A431-B1, absence of Tariquidar)?
Answer: Its value is 0.82.

Question: And the “SR A431-B1” value ([3]; IC50 A431 vs. A431-B1, presence of 1 µM Tariquidar (brackets))?
Answer: Its value is 0.42.

Question: What about the IC50 ([4]; absence of Tariquidar) of the same compound?
Answer: The IC50 was 9.74 ± 4.04 µM.

Question: And the IC50 [4, 12]?
Answer: The IC50 was 9.01 µM.

Question: What about the “SR MDCK-MM” value ([4]; absence of Tariquidar) of the same compound?
Answer: The value was 0.82.

Question: And the “SR MDCK-MM” value [4, 13]?
Answer: Its value is 1.23.

Question: And the IC50 ([5]; absence of Tariquidar)?
Answer: The IC50 was 3.12 ± 0.28 µM.

Question: And the IC50 [5, 12]?
Answer: Its IC50 is 3.6 µM.

Question: And the “SR MES-SA/B1” value ([5]; IC50 MES-SA vs. MES-SA/B1, absence of Tariquidar)?
Answer: Its value is 2.23.

Question: What about the “SR MES-SA/B1” value ([5]; IC50 MES-SA vs. MES-SA/B1, presence of 1 µM Tariquidar (brackets)) of the same compound?
Answer: Its value is 1.29.

Question: What about the IC50 ([6]; Homo sapiens, MES-SA/Dx5, Table S1, calculated as ligand equivalents, absence of TQ, read-out: IC50 Dx5) of the same compound?
Answer: Its IC50 is 3.27 ± 0.39 µM.

Question: And the “SR MES-SA/Dx5” value ([6]; IC50 MES-SA vs. MES-SA/Dx5, absence of Tariquidar)?
Answer: Its value is 2.13.

Question: And the “SR MES-SA/Dx5” value ([6]; IC50 MES-SA vs. MES-SA/Dx5, presence of 1 µM Tariquidar (brackets))?
Answer: The value was 0.85.

Question: And the “Effect of co-administration of CuCl2 on toxicity” value ([6]; MDR MES-SA/Dx5, increasing concentrations of CuCl2, MTT 72 h (Figure 2I-L))?
Answer: The value was “increased the toxicity”.

Question: What about the “Effect of co-incubation with iron(III) on cytotoxicity” value ([6]; MES-SA/Dx5, increasing concentrations of FeCl3, MTT 72 h (Figure 2A-D)) of the same compound?
Answer: Its value is “selectively protected MES-SA/Dx5 cells”.

Question: And the “SR MES-SA/Dx5 (Table 2)” value ([6]; Table 2, value in brackets (Tariquidar as in Table 1))?
Answer: Its value is 0.85.

Question: What about the “SR MES-SA/Dx5 (Table 2)” value ([6]; Table 2, value outside brackets) of the same compound?
Answer: Its value is 2.13.

Question: And the SR ([6]; Table S1, IC50 Pgp negative divided by Pgp positive cells, absence of TQ)?
Answer: Its SR is 2.13.

Question: What about the SR_TQ ([6]; Table S1, presence of 1 µM TQ) of the same compound?
Answer: The SR_TQ was 0.85.

Question: What about the IC50 ([7]; absence of Tariquidar) of the same compound?
Answer: Its IC50 is 2.84 ± 0.81 µM.

Question: What about the IC50 [7, 12] of the same compound?
Answer: Its IC50 is 5.41 µM.

Question: And the “SR NCI-ADRres” value ([7]; absence of Tariquidar)?
Answer: The value was 1.11.

Question: And the “SR NCI-ADRres” value [7, 13]?
Answer: Its value is 0.61.

Question: What about the IC50 ([8]; absence of Tariquidar) of the same compound?
Answer: The IC50 was 12 ± 7.84 µM.

Question: And the IC50 [8, 12]?
Answer: Its IC50 is 12.1 µM.

Question: What about the “SR MDCK-B1” value ([8]; IC50 MDCK vs. MDCK-B1, absence of Tariquidar) of the same compound?
Answer: Its value is 0.76.

Question: What about the “SR MDCK-B1” value ([8]; IC50 MDCK vs. MDCK-B1, presence of 1 µM Tariquidar (brackets)) of the same compound?
Answer: The value was 0.92.

Question: What about the “Fold change in fluorescence (DCFDA)” value ([9]; 6.25 µM) of the same compound?
Answer: Its value is 1.598± 0.32.

Question: What about the “Fold change in fluorescence (DCFDA)” value ([9]; 6.25 µM, presence of 5 mM NAC (brackets)) of the same compound?
Answer: The value was 1.096± 0.16.

Question: What about the “Fold change in fluorescence (DCFDA)” value ([9]; 12.5 µM) of the same compound?
Answer: The value was 1.792± 0.53.

Question: What about the “Fold change in fluorescence (DCFDA)” value ([9]; 12.5 µM, presence of 5 mM NAC (brackets)) of the same compound?
Answer: Its value is 0.930± 0.16.

Question: What about the “Fold change in fluorescence (DCFDA)” value ([9]; 25 µM) of the same compound?
Answer: The value was 2.101± 0.86.

Question: And the “Fold change in fluorescence (DCFDA)” value ([9]; 25 µM, presence of 5 mM NAC (brackets))?
Answer: The value was 0.988± 0.15.

Question: And the “Fold change in fluorescence (DCFDA)” value ([9]; 50 µM)?
Answer: Its value is 2.454± 1.39.

Question: What about the “Fold change in fluorescence (DCFDA)” value ([9]; 50 µM, presence of 5 mM NAC (brackets)) of the same compound?
Answer: The value was 0.946± 0.14.

Question: And the IC50 ([10]; absence of Tariquidar)?
Answer: The IC50 was 9.15 ± 3.51 µM.

Question: What about the IC50 [10, 12] of the same compound?
Answer: The IC50 was 11.1 µM.

Question: What about the IC50 ([11]; absence of Tariquidar) of the same compound?
Answer: Its IC50 is 3.16 ± 0.52 µM.

Question: What about the IC50 [11, 12] of the same compound?
Answer: Its IC50 is 3.28 µM.
